# Columns and labels:
# H1975 cells = assay: Colony survival assay, H1975 cells; format: cell-based; details: for survival rate, combined treatment: H1975, 5 μM cisplatin + 50 μM compound; for toxicity / cell viability, compound alone: H1975, 50 μM compound alone; for sensitization effect to cisplatin: H1975, cisplatin + 50 μM compound; for sensitization to doxorubicin: H1975, doxorubicin + 50 μM compound, 48 h; for cell survival with cisplatin plus inhibitor: H1975, varying cisplatin, 48 hours
# Description: H1975 cells were plated in 24-well plates at 50,000 cells/well (for 50 µM inhibitor treatment) or 20,000 cells/well (for […] inhibitor treatment). U2OS and A549 cells were plated in 24-well plates at 5000 cells/well. The next day, cells were treated with varying concentrations of cisplatin, either with or without added inhibitor compound. After 48 hours of cisplatin+compound treatment, the cells were washed 3 times with PBS×1 and fresh media applied. After 4 days of recovery, the cells were stained with methylene blue and imaged using a Nikon SMZ25 stereomicroscope. The images were analyzed using the ImageJ (National Institutes of Health) area measurement tool to quantify total colony size in each well.
# Cells were plated in 24-well plates at 50,000 cells/well (H1975 line) or 10,000 cells/well (A549 line). The next day, cells were treated with varying concentrations of cisplatin ([…]), with or without 50 μM compound. For the untreated control wells containing only cisplatin, DMSO was applied in place of the compound. After 48 hours of cisplatin+compound treatment, the cells were washed 3 times with PBS and fresh media was applied. After 4 days of recovery, the cells were stained with methylene blue and imaged using a Nikon SMZ25 stereomicroscope. The images were analyzed using the ImageJ (National Institutes of Health) area measurement tool to quantify total colony size in each well.
# In order to assess the ability of the selected compounds to sensitize cells during cisplatin treatment, the inventors established a colony survival assay comparing the viability of cells treated with cisplatin alone or with combined treatment of cisplatin and 50 μM compound. For the compound screen, we used two lung cancer cell lines: human non-small lung carcinoma H1975 cells, and epithelial lung adenocarcinoma A549 cells. Out of ten compounds tested, compounds c #2 and c #3 were identified with the most significant sensitization effect and were chosen for future characterization. […] Survival rate was reduced from 90% in 5 μM cisplatin treatment to 50% survival in the combined treatment (FIGS. 11A-B). H1975 cells presented similar behavior following doxorubicin treatment (FIG. 11C). IC50 was calculated using linear regression, presenting a clear reduction of cisplatin's IC50 in all treatments.
# MAD2L2-Rev1 complex = MAD2L2-Rev1 complex (Homo sapiens, UniProt Q9UI95); assay: GFP-Trap co-immunoprecipitation of YFP-Rev1 and myc-MAD2L2 in HEK293 cells; format: cell-based; design: expressed in transfected cells; host or cells: HEK293; details: 50 μM; for reduction of MAD2L2-Rev1 binding (complex formation): 24 h
# MAD2L2-Rev1 complex, sequence (Q9UI95 whole entry, one chain of several): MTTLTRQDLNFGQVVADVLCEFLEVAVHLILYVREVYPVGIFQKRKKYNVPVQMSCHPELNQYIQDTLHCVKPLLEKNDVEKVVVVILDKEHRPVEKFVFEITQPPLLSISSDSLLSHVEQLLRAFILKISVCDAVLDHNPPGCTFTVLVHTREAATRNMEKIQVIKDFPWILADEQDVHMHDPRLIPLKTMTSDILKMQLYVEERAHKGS
# Description: HEK293 cells were plated in 10-cm plates at 40-50% confluency. The next day, the cells were co-transfected with YFP-Rev1 and myc-MAD2L2 plasmids. After 24 hours, 50 µM inhibitor compounds (or DMSO negative control) were applied to the cells and growth continued for another 24 hours. The cells were then harvested and protein extraction was performed, followed by IP pulldown of the YFP-Rev1 species with GFP-Trap A conjugated agarose beads, to assess the levels of Co-IP'ed myc-REV7.
# Medium/DMEM (Biological Industries Israel Beit Haemek; 01-052-1A) with 4.5 g/l D-glucose, 4 mM L-glutamine, 10% fetal bovine serum (Biological Industries Israel Beit Haemek; 04-007-1A), and 1% penicillin/streptomycin. The H1975 cells were cultured in RPMI 1640 medium (Biological Industries Israel Beit Haemek; 01-100-1A) with 4.5 g/l D-glucose, 4 mM L-glutamine, 10% fetal bovine serum (Biological Industries Israel Beit Haemek; 04-007-1A), and 1% penicillin/streptomycin. Transfections of HEK293 cells with plasmid DNA were performed using the Avalanche® Everyday Transfection Reagent (EZT-EVDY-1); according to the manufacturer's protocol. Briefly, cells were passaged the day before transfection to reach a confluency of 60-70%. The next day, the selected plasmid DNA was incubated in serum-free media with the recommended volume of transfection reagent for 20 minutes at room temperature. This transfection mix was gently added to the prepared cell culture plate(s) for continued incubation at 37° C. For co-IP experiment plates, after 24 hours, the relevant compound (DMSO vehicle, c #2, or c #3) was added in pre-warmed media, and the transfected plates were incubated for another 24 hours at 37° C. until harvesting.
# HEK293 cells were harvested 48 h following co-transfection and lysed in extraction buffer (50 mM Tris pH 8, 150 mM NaCl, 20 mM EDTA, 50 mM NaF, 1% TritonX) supplemented with Merck® 1000×protease inhibitor (539134). Cells were lysed on ice for 30 minutes and centrifuged at 20,000 g for 30 minutes at 4° C. For immunoblotting, extracts were boiled in Laemmli buffer for 5 min. Equal amounts of protein sample (30 μg) were loaded on 8%-12% acrylamide gel and transferred to a nitrocellulose membrane (Amersham). For immunoprecipitations, clarified lysates were supplemented with 7 μl of equilibrated GFP-Trap antibody-conjugated agarose beads (Chromotek; gta-20) and incubated for 1-2 h at 4° C. Beads were washed three times in PBS buffer and boiled in Laemmli buffer for 5 minutes. The following primary antibodies were used for immunoblotting: Myc (Santa Cruz; SC-40) 1:1000 dilution, GFP (Santa Cruz, SC-9996) 1:1000 dilution, MAD2L2 (ProteinTech; 12683-1-AP). […]
smiles,measurement,setting,value
CNc1nc(N2CCCCC2)nc(-n2cnc(SCC(N)=O)n2)n1 [Compound 2],"survival rate, combined treatment",H1975 cells,50%
same,"toxicity / cell viability, compound alone",H1975 cells,no reduction in cell viability
same,"toxicity / cell viability, compound alone",H1975 cells; listed as c #2,caused no toxicity
same,sensitization effect to cisplatin,H1975 cells,approximately twofold sensitization effect
same,sensitization to doxorubicin,H1975 cells,sensitized
same,cell survival with cisplatin plus inhibitor,H1975 cells,reduction in cell survival
same,Rev1-Rev7 binding interaction (in words),MAD2L2-Rev1 complex,reduction in Rev1-Rev7 binding interaction
same,reduction of MAD2L2-Rev1 binding (complex formation),MAD2L2-Rev1 complex,about 50%
Cc1oc(-c2ccco2)nc1CC(=O)N[C@@H](C(=O)O)c1ccccc1 [Compound 3],"survival rate, combined treatment",H1975 cells,50%
same,"toxicity / cell viability, compound alone",H1975 cells,no reduction in cell viability
same,"toxicity / cell viability, compound alone",H1975 cells; listed as c #3,caused no toxicity
same,sensitization effect to cisplatin,H1975 cells,approximately twofold sensitization effect
same,sensitization to doxorubicin,H1975 cells,sensitized
same,cell survival with cisplatin plus inhibitor,H1975 cells,reduction in cell survival
same,Rev1-Rev7 binding interaction (in words),MAD2L2-Rev1 complex,reduction in Rev1-Rev7 binding interaction
same,reduction of MAD2L2-Rev1 binding (complex formation),MAD2L2-Rev1 complex,about 80%

# — patent US20250255876A1, “COMPOSITIONS AND METHODS FOR CANCER TREATMENT” (ARIEL SCIENTIFIC INNOVATIONS LTD., priority 2021, published 2025)
